Reference: patent publication US20210244735A1, “COMPOSITIONS AND METHODS FOR TREATING MYELOFIBROSIS” (Impact Biomedicines, Inc., priority 2010, published 2021)
“Also recorded” adds a separate entry of the source. Where a name gives a salt, the structure may show the parent alone.

Legend:
[1] = system: IL-6, IL-8, IL-2 and TNF-α; test: Phase 1 study: cytokine assessment by multiplexed sandwich ELISAs; assay type: in vivo, human; settings: relative to baseline during treatment; dihydrochloride monohydrate
Method: Cytokine Assessment: Samples for cytokine measurement were collected at baseline and every 4 weeks thereafter. Cytokine levels were measured using multiplexed sandwich ELISAs (Millipore, St. Charles, Mo.).

[2] = Compatibility with capsule shells, accelerated stability; assay type: physicochemical; settings: 250 mg filled capsules, 40° C./75% RH and 25° C./60% RH, t=1, 2, and 3 weeks
Method: Hard gelatin and hydroxypropylmethyl cellulose (HPMC) capsule shells (size […]) were filled with 250 mg of TG101348 di-HCl monohydrate. The filled capsules were placed on accelerated stability (40° C./75% relative humidity (RH) and 25° C./60% RH). The capsules were packaged into 30 mL (1 oz) amber high density polyethylene (HDPE) bottles.

[3] = system: JAK2V617F allele burden; test: Phase 1 study: JAK2V617F allele burden in granulocyte fraction of peripheral blood; assay type: in vivo, human
Method: Responses were measured every 4 weeks per International Working Group for MPN Research and Treatment (IWG-MRT) criteria (Tefferi A et al., Blood 108:1497-1503, 2006). Assessment of bone marrow histology was performed at baseline and every 24 weeks of therapy. Changes in JAK2V 617F allele burden in the granulocyte fraction of peripheral blood were measured as previously described (Kittur J et al., Cancer 109:2279-2284, 2007); the assessments were at baseline and every 4 weeks during the first 6 cycles, and every 6th cycle of therapy in the extension study.

[4] = Phase 1 study: plasma pharmacokinetics, non-compartmental analysis; assay type: in vivo, human
Method: Pharmacokinetics: The concentration—time curves of TG101348 in plasma were evaluated by a non-compartmental analysis (with the use of WinNonlin® software, version 5.2).

[5] = mean, 240 mg/day (n=3), Cycle 1 Day 28
[6] = mean, 360 mg/day (n=3), Cycle 1 Day 28
[7] = mean, 800 mg/day (n=5), Cycle 1 Day 28

Structure (SMILES): Cc1cnc(Nc2ccc(OCCN3CCCC3)cc2)nc1Nc1cccc(S(=O)(=O)NC(C)(C)C)c1 [TG101348, N-tert-butyl-3-[(5-methyl-2-{[4-(2-pyrrolidin-1-ylethoxy)phenyl]amino}pyrimidin-4-yl)amino]benzenesulfonamide dihydrochloride monohydrate]
- effect on cytokine levels (IL-6, IL-8, IL-2, TNF-α) [1]: no significant changes; also recorded: minimal effect; also recorded: no consistent changes
- changes in attributes (appearance, assay, impurities) in capsule shells [2]: No appreciable changes
- patients with ≥50% reduction in VF allele burden ([3]; 48 evaluable VF-positive patients, last available follow-up): 21 (44%) patients (%)
- subjects with ≥50% decrease in JAK2V617F ([3]; baseline >20%, 18 subjects who completed 12 cycles): 7 (39%) subjects (%)
- JAK2V617F allele burden compared to pre-study baseline ([3]; end of cycle 6 and cycle 12, Wilcoxon matched-pair signed-rank test): significant decrease
- plasma concentration over at least 24 hours after the dose ([4]; 360 mg/day, Cycle 1 Day 28): above IC90
- plasma concentration over at least 24 hours after the dose ([4]; 520 mg/day, Cycle 1 Day 28): above 3×IC90
- increase of mean steady-state AUC0-t over a 27-fold increase in dose ([4]; in vivo): ~88 fold
- increase of mean steady-state C. over a 27-fold increase in dose ([4]; in vivo): approximately 54 fold
- λz (elimination rate constant) ([4]; mean, 30 mg/day (n=3), Cycle 1 Day 28): 0.0354 h⁻¹
- λz (elimination rate constant) ([4]; mean, 60 mg/day (n=3), Cycle 1 Day 28): 0.0456 h⁻¹
- λz (elimination rate constant) ([4]; mean, 120 mg/day (n=3), Cycle 1 Day 28): 0.0305 h⁻¹
- T1/2 (terminal half-life) [4, 5]: 20.77 h
- λz (elimination rate constant) [4, 5]: 0.0352 h⁻¹
- Cmax [4, 6]: 1.71733 µg/mL
- T1/2 (terminal half-life) [4, 6]: 21.39 h
- λz (elimination rate constant) [4, 6]: 0.0353 h⁻¹
- λz (elimination rate constant) ([4]; mean, 520 mg/day (n=3), Cycle 1 Day 28): 0.0343 h⁻¹
- λz (elimination rate constant) ([4]; mean, 680 mg/day (n=27), Cycle 1 Day 28): 0.0301 h⁻¹
- T1/2 (terminal half-life) [4, 7]: 23.99 h
- λz (elimination rate constant) [4, 7]: 0.0331 h⁻¹
